In patent US20250270645A1, “ALGORITHM AND AN IN VITRO METHOD BASED ON RNA EDITING TO SELECT PARTICULAR EFFECT INDUCED BY ACTIVE COMPOUNDS” (ALCEDIAG, priority 2016, published 2025):
“Also recorded” adds a separate entry of the source.

Assays:
[1] = annotation of the molecule (low/no risk versus high/at risk); cited from earlier work
HTR2C RNA editing [2] = experiment: Dose-dependent alterations of HTR2C RNA editing profile in SH-SY5Y cells; type: cell-based, human; details: compared to vehicle-treated cells
Procedure: Prior to the experiment, the human neuroblastoma cell line (SH-SY5Y) was treated with an increasing dose of interferon and RNA editing of 5HT2cR was measured using NGS based approach.
The RNA editing profiles represent the respective relative proportion of HTR2C RNA editing as compared to vehicle-treated SH-SY5Y cells.

HTR2C RNA editing [3] = experiment: Time course of HTR2C RNA editing in SH-SY5Y cells with risk score by the most preferred algorithm (prob(Algorithm)); type: cell-based, human; details: for prob(Algorithm) risk score / prediction: SH-SY5Y, HTR2C; for time course of HTR2C RNA editing profile: SH-SY5Y cells, 12-48 h; for risk score over time points: most preferred algorithm, each time point
ADAR1a mRNA expression = experiment: Relative ADAR1a mRNA expression by quantitative PCR in treated SH-SY5Y cells; type: cell-based, human; details: 48 hours
Procedure: After cDNA synthesis samples were stored at 4° C. prior analysis of ADAR1a mRNA expression by qPCR on a LC480 system (Roche). qPCR data were quantified using the standard curve method. mRNA expression of ADAR1a is known to be induced by Interferon alpha treatment (IFNα). […] In this way, all samples of the same batch could be analysed in a single qPCR run. […] This response could be seen in all biological replicates (n=5). […] The coefficient of variation of 9.31% clearly illustrates the reproducibility of the biological phenomenon.

CNC1(c2ccccc2Cl)CCCCC1=O (centres unmarked) [Ketamine]
risk class to induce psychiatric adverse side effect in a patient [1]: low risk
dose dependence of 5-HT2cR/HTR2C RNA editing profile (HTR2C RNA editing [2]): Dose-dependent alterations of RNA editing profiles

O=C1CCc2ccc(OCCCCN3CCN(c4cccc(Cl)c4Cl)CC3)cc2N1 [Aripiprazole]
prob(Algorithm) risk score (HTR2C RNA editing [3]; 12 h treatment): 0.528
prediction (HTR2C RNA editing [3]; 24 h treatment): Pos
prob(Algorithm) risk score (HTR2C RNA editing [3]; 24 h treatment): 0.632
prediction (HTR2C RNA editing [3]; 48 h treatment): Pos
prob(Algorithm) risk score (HTR2C RNA editing [3]; 48 h treatment): 0.760
time course of HTR2C RNA editing profile (HTR2C RNA editing [3]): time-dependent alterations of the RNA editing profile
risk score over time points (HTR2C RNA editing [3]): identified positively at risk starting from 24 hours and beyond
risk class to induce psychiatric adverse side effect in a patient [1]: at risk

CC1=C(/C=C/C(C)=C/C=C/C(C)=C\C(=O)O)C(C)(C)CCC1 [Isotretinoin]
risk class to induce psychiatric adverse side effect in a patient [1]: at risk

C[C@H](NC(=O)C(C)(C)Oc1ccc(C(F)(F)F)cn1)[C@@H](Cc1ccc(Cl)cc1)c1cccc(C#N)c1 [Taranabant]
risk class to induce psychiatric adverse side effect in a patient [1]: at risk

NC(=O)c1ncn([C@@H]2O[C@H](CO)[C@@H](O)[C@H]2O)n1 [Ribavirin]
risk class to induce psychiatric adverse side effect in a patient [1]: low risk

COC(=O)[C@H]1[C@H]2C[C@@H]3c4[nH]c5cc(OC)ccc5c4CCN3C[C@H]2C[C@@H](OC(=O)c2cc(OC)c(OC)c(OC)c2)[C@@H]1OC [molecule 165]
effect on ADAR1a mRNA expression (ADAR1a mRNA expression): induced ADAR1a mRNA expression; also recorded: strong increase of ADAR1a mRNA expression levels

[Li] [Lithium]
risk class to induce psychiatric adverse side effect in a patient [1]: low risk

CCN(CC)CC(=O)Nc1c(C)cccc1C [Lidocaine]
risk class to induce psychiatric adverse side effect in a patient [1]: low or no risk

CNCCC(Oc1ccc(C(F)(F)F)cc1)c1ccccc1 (centres unmarked) [Fluoxetine]
risk class to induce psychiatric adverse side effect in a patient [1]: high risk

CN[C@H]1CC[C@@H](c2ccc(Cl)c(Cl)c2)c2ccccc21 [Sertraline]
risk class to induce psychiatric adverse side effect in a patient [1]: at risk
dose dependence of 5-HT2cR/HTR2C RNA editing profile (HTR2C RNA editing [2]): Dose-dependent alterations of RNA editing profiles

COC(=O)[C@H]1[C@H]2C[C@@H]3c4[nH]c5cc(OC)ccc5c4CCN3C[C@H]2C[C@@H](OC(=O)c2cc(OC)c(OC)c(OC)c2)[C@@H]1OC [Reserpine]
effect on ADAR1a mRNA expression (ADAR1a mRNA expression): consistently increase ADAR1a mRNA levels
prediction (HTR2C RNA editing [3]; 12 h treatment): Pos
prob(Algorithm) risk score (HTR2C RNA editing [3]; 12 h treatment): 0.878
prediction (HTR2C RNA editing [3]; 24 h treatment): Pos
prob(Algorithm) risk score (HTR2C RNA editing [3]; 24 h treatment): 0.986
prediction (HTR2C RNA editing [3]; 48 h treatment): Pos
prob(Algorithm) risk score (HTR2C RNA editing [3]; 48 h treatment): 0.976
time course of HTR2C RNA editing profile (HTR2C RNA editing [3]): time-dependent alterations of the RNA editing profile
risk score over time points (HTR2C RNA editing [3]): risk scores were high at all time points
risk class to induce psychiatric adverse side effect in a patient [1]: high risk
